Reference: PMC6713104, “New peptide derived antimalaria and antimicrobial agents bearing sulphonamide moiety” (Journal of Enzyme Inhibition and Medicinal Chemistry, 2019)
In brackets after ≈: the same amount, converted by molar mass. Read-outs that look alike come from different tables or passages of the source.

How the values were obtained:
A. niger = test: Antimicrobial MIC, agar cup diffusion; assay type: cell-based; conditions: Aspergillus niger, read-out: MIC (minimum inhibitory concentration)
C. albicans = test: Antimicrobial MIC, agar cup diffusion; assay type: cell-based; conditions: Candida albicans, read-out: MIC (minimum inhibitory concentration)
[1] = Renal or kidney function test; assay type: in vivo; conditions: mice, 10 mg/kg
Source text: (§1) Twenty-four hours before the injecting the compounds, the blood sample of five mice was taken and it was also taken after the last day of treatment, the animals were sacrificed by cervical dislocation and the blood samples were collected by heart puncture. The blood samples for haematological parameters (red blood cell (RBC) count, white blood cell (WBC) count, packed cell volume (PCV), and hemoglobin (HGB)) were collected into EDTA bottles and analyzed using an automated machine (Automated CBC Analyzer: Sysmex KX-21). Kidney function tests carried out with the blood of the rats fed with the sulfonamide derivatives were, creatinine and albunim. The method reported by Kaplan and Tengv[33] was used in the determination of creatinine.

Haematological analysis = assay type: in vivo, mice
Source text: as §1, with “KX-21).” for “KX-21). Kidney function tests carried out with the blood of the rats fed with the sulfonamide derivatives were, creatinine and albunim. The method reported by Kaplan and Tengv[33] was used in the determination of creatinine.”
The blood samples for haematological parameters (red blood cell (RBC) count, white blood cell (WBC) count, packed cell volume (PCV), and haemoglobin (HGB)) were collected into EDTA bottles and analyzed using an automated machine (Automated CBC Analyzer: Sysmex KX-21) (Table 8). From the analysis, even though there is a decrease in the value of RBC, PCV and HB, it is observed that there is no significant changes in the parameters that were analyzed for the control and the test compounds.

B. subtilis = test: Antimicrobial MIC, agar cup diffusion; assay type: cell-based; conditions: for MIC: Bacillus subtilis, B. subtilis, read-out: MIC (minimum inhibitory concentration); for activity against Bacillus compared with ciprofloxacin: in words
K. pneumoniae = test: Antimicrobial MIC, agar cup diffusion; assay type: cell-based; conditions: Klebsiella pneumoniae, read-out: MIC (minimum inhibitory concentration)
[2] = tested on: Plasmodium berghei infection in mice; test: In vivo antimalaria test; conditions: P. berghei infected mice; for ability to inhibit parasitaemia compared to the control drug: in words; for inhibition in vivo at 100 mg/kg / inhibition in vivo at 200 mg/kg: Plasmodium berghei, oral
Procedure: Experimental Design and Treatment of Mice. Methods of Peter et al.[30] and Kalra et al.[31] for antiplasmodial assay against Plasmodium berghei infection in mice with some modifications were employed. About eighty infected mice were randomly divided into five groups, each having […] mice. The inoculum was prepared from a donor mouse with rising parasitemia of 60.42%. After 7 days of infection, animals begin to receive treatment (100 and 200 mg/kg b wt.) of the synthesized compounds (7a–7n) for 12 days with constant check of the percentage of parasitemia after a 4-day interval. Artemisinin (100 and 200 mg/kg body weight.) was given to the other mice in group three as positive control, group four was not treated and group five was not infected. All the compounds and the drugs were given orally by using a standard intragastric tube. For all parasitemia determination, blood samples were collected from tail snip of each mouse and thin smears prepared and stained with 10% Giemsa solution. The uniform fields of each stained slide (for each mouse) were examined under microscope with an oil immersion objective of 100X magnification power and average percent of parasitemia was determined.
To determine the in vivo activity, the compounds were tested against P. berghei NK(65 Strain) infection mice., the animals were obtained from Nigeria institute for Trypanosoma and onchocercarioses Research (NTIR) Vom, Plateau State Nigeria. The permission and approval for the use of animals in this experiment were granted by the Animal Ethics Committee, Federal College of Vetrenary Medical Laboratory, Vom, Plateau State. Method of Peter et al.[30], for antiplasmodial assay against P. berghei in mice with some modification were employed. Artemisimin was used as treated control of the experiments. The percentage inhibition of parasite multiplication was calculated comparing the treated group with untreated group by means of the following formula[39] [(A − B)/A] × 100; where A = parasitaemia in the untreated group and B = parasitemia in the test group. […] Most of the compounds were active against P. berghei after 7 days post-infection by reducing the parasiteamia by at least 40% when in a dose of 100 mg/kg (Table 5). The inhibition of parasitaemia increased on 12th day post infection for almost all the compounds. […] However in consideration of the compounds ability to inhibit parasitaemia to the control drug. […] These compounds should be considered for further studies because of its promising activities.

E. coli = test: Antimicrobial MIC, agar cup diffusion; assay type: cell-based; conditions: Escherichia coli, read-out: MIC (minimum inhibitory concentration)
P. falciparum strain W2 = test: In vitro antimalarial assay; assay type: cell-based; conditions: for MIC: Plasmodium falciparum, W2, P. falciparum
S. typhi = test: Antimicrobial MIC, agar cup diffusion; assay type: cell-based; conditions: Salmonella enterica, read-out: MIC (minimum inhibitory concentration)
Liver function tests = assay type: in vivo; parameters: Glucose: unit not given here; conditions: mice, 10 mg/kg
Source text: as §1, with “KX-21). The liver” for “KX-21). Kidney”, “derivatives were aspartate aminotransperase (AST), alanine transaminase (ALT)” for “derivatives were, creatinine”, “and alkaline phosphatase (ALP). Standard laboratory procedure according to Reitman” for “and albunim. The method reported by Kaplan”, “and Franke[32]” for “and Tengv[33]”, “used for” for “used in”, “of parameters.” for “of creatinine.”

[3] = 168 h, read-out: % inhibition 7 days post-treatment (100 mg/kg), day 7
[4] = 168 h, read-out: % inhibition 7 days post-treatment (200 mg/kg), day 7
[5] = 288 h, read-out: % inhibition 12 days post-treatment (100 mg/kg), day 12
[6] = 288 h, read-out: % inhibition 12 days post-treatment (200 mg/kg), day 12
[7] = 48 h, >99% of parasites inhibited from developing to schizonts

## Cc1ccc(S(=O)(=O)NC(C)C(=O)NCC(=O)Nc2cccc(Cl)c2)cc1 (stereo not drawn) [Compound 7h, N-(2-((3-chlorophenyl)amino)-2-oxoethyl)-2–(4-methylphenylsulfonamido)propanamide]
A. niger
  MIC: 31.6 µg/mL (≈ 77.1 µM)
C. albicans
  MIC: 34 µg/mL (≈ 82.9 µM)
[1]; After
  Albumin: 3.9 g/dL
  Creatinine: 0.3 mg/dL
[1]; Before
  Albumin: 3.9 g/dL
  Creatinine: 0.3 mg/dL
Haematological analysis; After treatment
  HB: 10.0 g/dL
  PCV: 34%
  RBC: 5.9 × 10^6 mm^3
  WBC: 9.3 × 10^3 mm^3
Haematological analysis; Before treatment
  HB: 13.4 g/dL
  PCV: 39%
  RBC: 7.3 × 10^6 mm^3
  WBC: 9.4 × 10^3 mm^3
B. subtilis
  MIC: 214 µg/mL (≈ 522 µM)
K. pneumoniae
  MIC: 5250 µg/mL (≈ 12800 µM)
[2]
  ability to inhibit parasitaemia compared to the control drug: almost the same or better activity compared to the artemisinin
[2]; [3]
  inhibition in vivo at 100 mg/kg: 61.4%
[2]; [4]
  inhibition in vivo at 200 mg/kg: 49.9%
[2]; [5]
  inhibition in vivo at 100 mg/kg: 57.8%
[2]; [6]
  inhibition in vivo at 200 mg/kg: 55.2%
E. coli
  MIC: 239 µg/mL (≈ 583 µM)
other
  melting point: 120 to 122 °C
P. falciparum strain W2
  MIC: 50 µM (≈ 20.5 µg/mL)
P. falciparum strain W2; [7]
  MIC: 0.03 µM (≈ 0.0123 µg/mL)
P. falciparum strain W2; in words
  in vitro antimalarial activity relative to other compounds and standard drugs: best activity
S. typhi
  MIC: 1290 µg/mL (≈ 3140 µM)
Liver function tests; After
  ALT: 24.5 µ/L
  AST: 69.5 µ/L
  Bilirubin: 0.3 mg/dL
  Glucose: 5.5
  T.P.: 5.5 g/dL
Liver function tests; Before
  ALT: 25.4 µ/L
  AST: 65.0 µ/L
  Bilirubin: 0.4 mg/dL
  Glucose: 5.9
  T.P.: 6.0 g/dL

## CC(NS(=O)(=O)c1ccccc1)C(=O)NCC(=O)Nc1ccc2ccccc2c1 (stereo not drawn) [Compound 7g, N-(2-(naphthalene-2-ylamino)-2-oxoethyl)-2-(phenylsulfonamido)propanamide]
A. niger
  MIC: 158 µg/mL (≈ 384 µM)
C. albicans
  MIC: 29.7 µg/mL (≈ 72.2 µM)
B. subtilis
  MIC: 141 µg/mL (≈ 343 µM)
  activity against Bacillus compared with ciprofloxacin: greater activity against Bacillus than ciprofloxacin
K. pneumoniae
  MIC: 166 µg/mL (≈ 403 µM)
[2]; [3]
  inhibition in vivo at 100 mg/kg: 27.5%
[2]; [4]
  inhibition in vivo at 200 mg/kg: 54.7%
[2]; [5]
  inhibition in vivo at 100 mg/kg: 36.8%
[2]; [6]
  inhibition in vivo at 200 mg/kg: 51.9%
other
  melting point: 170 to 172 °C
P. falciparum strain W2; [7]
  MIC: 3.23 µM (≈ 1.33 µg/mL)
S. typhi
  MIC: 79 µg/mL (≈ 192 µM)

## Cc1ccc(NC(=O)CNC(=O)C(C)NS(=O)(=O)c2ccccc2)cc1 (stereo not drawn) [Compound 7e]
A. niger
  MIC: 2090 µg/mL (≈ 5560 µM)
C. albicans
  MIC: 28.8 µg/mL (≈ 76.7 µM)
[1]; After
  Albumin: 3.5 g/dL
  Creatinine: 0.3 mg/dL
[1]; Before
  Albumin: 4.1 g/dL
  Creatinine: 0.3 mg/dL
Haematological analysis; After treatment
  HB: 11.0 g/dL
  PCV: 35%
  RBC: 6.0 × 10^6 mm^3
  WBC: 10.5 × 10^3 mm^3
Haematological analysis; Before treatment
  HB: 14.1 g/dL
  PCV: 36%
  RBC: 6.85 × 10^6 mm^3
  WBC: 12.2 × 10^3 mm^3
[2]
  ability to inhibit parasitaemia compared to the control drug: almost the same or better activity compared to the artemisinin
[2]; [3]
  inhibition in vivo at 100 mg/kg: 62.3%
[2]; [4]
  inhibition in vivo at 200 mg/kg: 40.2%
[2]; [5]
  inhibition in vivo at 100 mg/kg: 66.7%
[2]; [6]
  inhibition in vivo at 200 mg/kg: 50.7%
E. coli
  MIC: 6330 µg/mL (≈ 16900 µM)
other
  melting point: 160 to 162 °C
P. falciparum strain W2
  MIC: 30 µM (≈ 11.3 µg/mL)
P. falciparum strain W2; [7]
  MIC: 0.05 µM (≈ 0.0188 µg/mL)
S. typhi
  MIC: 194 µg/mL (≈ 517 µM)
Liver function tests; After
  ALT: 22.0 µ/L
  AST: 60.5 µ/L
  Bilirubin: 0.2 mg/dL
  Glucose: 5.0
  T.P.: 4.5 g/dL
Liver function tests; Before
  ALT: 24.0 µ/L
  AST: 64.0 µ/L
  Bilirubin: 0.3 mg/dL
  Glucose: 5.8
  T.P.: 5.8 g/dL

## CC(NS(=O)(=O)c1ccccc1)C(=O)NCC(=O)Nc1ccc(Cl)cc1 (stereo not drawn) [Compound 7b]
A. niger
  MIC: 100 µg/mL (≈ 253 µM)
C. albicans
  MIC: 135 µg/mL (≈ 341 µM)
B. subtilis
  MIC: 129 µg/mL (≈ 326 µM)
  activity against Bacillus compared with ciprofloxacin: greater activity against Bacillus than ciprofloxacin
K. pneumoniae
  MIC: 1690 µg/mL (≈ 4270 µM)
[2]; [3]
  inhibition in vivo at 100 mg/kg: 51.3%
[2]; [4]
  inhibition in vivo at 200 mg/kg: 57.6%
[2]; [5]
  inhibition in vivo at 100 mg/kg: 55.2%
[2]; [6]
  inhibition in vivo at 200 mg/kg: 53.4%
E. coli
  MIC: 467 µg/mL (≈ 1180 µM)
other
  melting point: 140 to 142 °C
P. falciparum strain W2; [7]
  MIC: 0.87 µM (≈ 0.344 µg/mL)
S. typhi
  MIC: 602 µg/mL (≈ 1520 µM)

## Cc1ccc(NC(=O)CNC(=O)C(C)NS(=O)(=O)c2ccc(C)cc2)cc1 (stereo not drawn) [Compound 7l, 2–(4-methylphenylsulfonamido)-N-(2-oxo-2-(p-tolylamino)ethyl)propanamide]
A. niger
  MIC: 123 µg/mL (≈ 316 µM)
C. albicans
  MIC: 174 µg/mL (≈ 447 µM)
B. subtilis
  MIC: 245 µg/mL (≈ 629 µM)
K. pneumoniae
  MIC: 107 µg/mL (≈ 275 µM)
[2]; [3]
  inhibition in vivo at 100 mg/kg: 38.2%
[2]; [4]
  inhibition in vivo at 200 mg/kg: 60.7%
[2]; [5]
  inhibition in vivo at 100 mg/kg: 41.7%
[2]; [6]
  inhibition in vivo at 200 mg/kg: 74.6%
E. coli
  MIC: 169 µg/mL (≈ 434 µM)
other
  melting point: 120 to 122 °C
P. falciparum strain W2; [7]
  MIC: 0.93 µM (≈ 0.362 µg/mL)
S. typhi
  MIC: 57 µg/mL (≈ 146 µM)
